These results are taken from ChEMBL document CHEMBL5625174, “Are inhibitors of histone deacetylase 8 (HDAC8) effective in hematological cancers especially acute myeloid leukemia (AML) and acute lymphoblastic leukemia (ALL)?” (Eur J Med Chem, 2023).

For test [1], the system named is Jurkat. The experiment in a line: Cytotoxicity against human Jurkat cells assessed as reduction in cell viability incubated for 24 hrs by CellTiter-Glo luminescent cell viability assay. The class given is functional. (In general: ATP-based viability assays read luminescence as a measure of living cells.)
For the next test, the system named is MCF7. Briefly: Antiproliferative activity against human MCF7 cells assessed as reduction in cell viability incubated for 24 hrs by MTT assay. Type of test: functional, cell-based. The settings on record: MCF7, 24 h. For orientation: Tetrazolium dyes change colour on reduction, which living cells bring about.
The next test concerns MDA-MB-231. Briefly: Antiproliferative activity against human MDA-MB-231 cells assessed as reduction in cell viability incubated for 24 hrs by MTT assay. The class given is functional, cell-based. The settings on record: MDA-MB-231, 24 h.
Another test has as its system HeLa. Briefly: Growth inhibition of human HeLa cells incubated for 72 hrs by trypan blue assay. The class given is functional.
The target in the next test is Histone deacetylase 1 (Homo sapiens, UniProt Q13547). Briefly: Inhibition of HDAC1 (unknown origin) using Ac-Leu-Gly-Lys(Ac)-AMC as substrate pre-incubated for 30 mins followed by substrate addition and measured after 30 mins by fluorescence based analysis.
Another test concerns the target Histone deacetylase 2 (Homo sapiens, UniProt Q92769). Briefly: Inhibition of HDAC2 (unknown origin) assessed as release of fluorogenic AMC pre-incubated for 15 mins followed by addition of trypsin and substrate measured after 60 mins microplate reader analysis.
A further test addresses Histone deacetylase 3 (Homo sapiens, UniProt O15379). Briefly: Inhibition of HDAC3 (unknown origin) assessed as release of fluorogenic AMC pre-incubated for 15 mins followed by addition of trypsin and substrate measured after 60 mins microplate reader analysis.
Test [2] is described as follows: Inhibition of HDAC6 (unknown origin) assessed as release of fluorogenic AMC pre-incubated for 15 mins followed by addition of trypsin and substrate measured after 60 mins microplate reader analysis. More on the design: species or system Homo sapiens.
In test [3] the target is T1, Polyamine deacetylase HDAC10 (Homo sapiens, UniProt Q969S8).
T1 sequence (Q969S8 whole entry): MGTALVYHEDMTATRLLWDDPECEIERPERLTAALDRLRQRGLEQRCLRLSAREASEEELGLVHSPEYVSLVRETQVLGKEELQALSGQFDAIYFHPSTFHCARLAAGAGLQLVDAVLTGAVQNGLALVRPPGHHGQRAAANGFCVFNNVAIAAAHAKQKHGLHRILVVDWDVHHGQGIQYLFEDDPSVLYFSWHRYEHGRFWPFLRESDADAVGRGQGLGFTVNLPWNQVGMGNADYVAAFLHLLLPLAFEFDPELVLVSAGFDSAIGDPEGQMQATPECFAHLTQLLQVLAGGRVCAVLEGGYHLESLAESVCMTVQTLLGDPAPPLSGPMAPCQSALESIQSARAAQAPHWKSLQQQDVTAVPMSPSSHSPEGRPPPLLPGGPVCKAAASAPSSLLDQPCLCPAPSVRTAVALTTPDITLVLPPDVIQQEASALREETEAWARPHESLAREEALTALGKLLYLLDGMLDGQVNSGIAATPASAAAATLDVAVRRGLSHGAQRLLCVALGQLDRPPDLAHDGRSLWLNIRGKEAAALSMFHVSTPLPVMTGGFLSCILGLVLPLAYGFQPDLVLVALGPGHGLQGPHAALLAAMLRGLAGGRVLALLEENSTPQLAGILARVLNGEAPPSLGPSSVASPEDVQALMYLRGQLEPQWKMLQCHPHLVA
Briefly: Inhibition of HDAC10 (unknown origin) assessed as release of fluorogenic AMC pre-incubated for 15 mins followed by addition of trypsin and substrate measured after 60 mins microplate reader analysis.

Test [4] has as its target T2, Histone deacetylase 8 (Homo sapiens, UniProt Q9BY41).
T2 sequence (Q9BY41 whole entry): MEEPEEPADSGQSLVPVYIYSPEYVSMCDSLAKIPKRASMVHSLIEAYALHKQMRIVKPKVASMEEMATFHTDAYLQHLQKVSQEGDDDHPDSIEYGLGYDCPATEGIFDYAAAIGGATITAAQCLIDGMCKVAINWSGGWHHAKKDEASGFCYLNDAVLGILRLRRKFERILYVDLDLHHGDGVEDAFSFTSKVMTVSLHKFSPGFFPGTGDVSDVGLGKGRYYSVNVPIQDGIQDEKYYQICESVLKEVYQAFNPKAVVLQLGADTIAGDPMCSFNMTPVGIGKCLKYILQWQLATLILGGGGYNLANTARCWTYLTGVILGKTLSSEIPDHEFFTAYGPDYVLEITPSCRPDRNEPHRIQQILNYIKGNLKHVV
Briefly: Inhibition of HDAC8 (unknown origin).

Test [5] deals with Jurkat. Briefly: Cytotoxicity against human Jurkat cells assessed as reduction in cell viability measured after 24 hrs by Celltiter-Glo assay. The class given is functional, cell-based.
Test [6] addresses Macrophage metalloelastase (Homo sapiens, UniProt P39900). Briefly: Inhibition of MMP-12 (unknown origin).
The next test has as its target Histone deacetylase. Briefly: Inhibition of HDAC (unknown origin) using Fluoro-Substrate Peptide as substrate by fluorescence assay. Type of test: protein assay, Homo sapiens.
Test [7] has as its target T2, Histone deacetylase 8. Briefly: Inhibition of HDAC8 (unknown origin) using as Fluor-de-lys substrate by fluorescence based analysis.
Another test deals with Neutrophil collagenase (Homo sapiens, UniProt P22894). The experiment in a line: Inhibition of MMP-8 (unknown origin).
Test [8] concerns the target 72 kDa type IV collagenase (Homo sapiens, UniProt P08253). The experiment in a line: Inhibition of MMP-2 (unknown origin).
The target of test [9] is Matrix metalloproteinase-9 (Homo sapiens, UniProt P14780). Briefly: Inhibition of MMP-9 (unknown origin).
Test [10] deals with Matrix metalloproteinase-14 (Homo sapiens, UniProt P50281). Briefly: Inhibition of MMP-14 (unknown origin).
Test [11] deals with T2, Histone deacetylase 8. Briefly: Inhibition of HDAC8 (unknown origin) by fluorescence based assay.
The next test has as its system U-937. Briefly: Cytotoxicity against human U-937 cells assessed as reduction in cell viability. The class given is functional, cell-based.
Test [12] deals with Jurkat E6.1. The experiment in a line: Cytotoxicity against human Jurkat E6.1 cells assessed as reduction in cell viability. The class given is functional, cell-based.
Test [13] relates to MOLT-4. Briefly: Cytotoxicity against human MOLT-4 cells assessed as reduction in cell viability. The class given is functional, cell-based.
Test [14] deals with Jurkat. Briefly: Antiproliferative activity against human Jurkat cells assessed as cell growth inhibition measured after 72 hrs by CCK-8 assay. Type of test: functional.
The test system of another test is HH. The experiment in a line: Antiproliferative activity against human HH cells assessed as cell growth inhibition measured after 72 hrs by CCK-8 assay. The class given is functional.
A further test deals with MT4. The experiment in a line: Cytotoxicity against human MT4 cells assessed as inhibition of cell growth incubated for 72 hrs by CCK-8 assay. Type of test: functional.
For another test, the system named is HuT78. The experiment in a line: Anti-proliferative activity against human HuT78 cells assessed as growth inhibition incubated for 72 hrs by alamar blue staining based fluorometric assay. The class given is functional.
Test [15] deals with T3, Histone deacetylase 4 (Homo sapiens, UniProt P56524). Briefly: Inhibition of HDAC4 (unknown origin) assessed as release of fluorogenic AMC pre-incubated for 15 mins followed by addition of trypsin and substrate measured after 60 mins microplate reader analysis.
Test [16] has as its target T2, Histone deacetylase 8. The experiment in a line: Inhibition of HDAC8 (unknown origin) assessed as release of fluorogenic AMC pre-incubated for 15 mins followed by addition of trypsin and substrate measured after 60 mins microplate reader analysis.
Test [17] concerns Jurkat. The experiment in a line: cells. The class given is functional. As to conditions: Homo sapiens.
Description: Growth inhibition of human Jurkat cells
Test [18] has as its target T3, Histone deacetylase 4. Briefly: Inhibition of HDAC4 (unknown origin).
The target in test [19] is T1, Polyamine deacetylase HDAC10. The experiment in a line: Inhibition of HDAC10 (unknown origin).
Test [20] concerns MOLT-4. The experiment in a line: cells. The class given is functional. The settings on record: Homo sapiens, time 24 hrs.
Description: Growth inhibition of human MOLT-4 cells measured after 24 hrs by MTT assay
Another test deals with THP-1. Briefly: cells. Type of test: functional. The settings on record: Homo sapiens.
Test [21] relates to Jurkat E6.1. Briefly: Cytotoxicity against human Jurkat E6.1 cells assessed as reduction in cell growth measured after 48 hrs by MTT assay. As to conditions: Jurkat E6.1, 48 h. The class given is functional, cell-based.

Chain of Histone deacetylase 2 (Q92769 whole entry): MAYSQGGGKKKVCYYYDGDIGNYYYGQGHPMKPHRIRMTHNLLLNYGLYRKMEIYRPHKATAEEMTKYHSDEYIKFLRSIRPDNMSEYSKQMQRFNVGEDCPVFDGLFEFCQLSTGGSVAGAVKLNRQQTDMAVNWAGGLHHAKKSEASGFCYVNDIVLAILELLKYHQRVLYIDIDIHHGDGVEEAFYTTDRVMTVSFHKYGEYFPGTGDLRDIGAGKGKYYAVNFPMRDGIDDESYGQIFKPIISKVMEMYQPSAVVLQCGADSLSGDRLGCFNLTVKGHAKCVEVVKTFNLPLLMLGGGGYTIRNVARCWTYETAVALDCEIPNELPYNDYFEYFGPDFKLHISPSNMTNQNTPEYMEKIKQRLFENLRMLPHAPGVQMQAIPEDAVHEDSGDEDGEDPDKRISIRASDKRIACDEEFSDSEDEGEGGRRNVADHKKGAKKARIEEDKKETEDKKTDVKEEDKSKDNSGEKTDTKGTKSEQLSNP
T3 sequence (P56524 whole entry): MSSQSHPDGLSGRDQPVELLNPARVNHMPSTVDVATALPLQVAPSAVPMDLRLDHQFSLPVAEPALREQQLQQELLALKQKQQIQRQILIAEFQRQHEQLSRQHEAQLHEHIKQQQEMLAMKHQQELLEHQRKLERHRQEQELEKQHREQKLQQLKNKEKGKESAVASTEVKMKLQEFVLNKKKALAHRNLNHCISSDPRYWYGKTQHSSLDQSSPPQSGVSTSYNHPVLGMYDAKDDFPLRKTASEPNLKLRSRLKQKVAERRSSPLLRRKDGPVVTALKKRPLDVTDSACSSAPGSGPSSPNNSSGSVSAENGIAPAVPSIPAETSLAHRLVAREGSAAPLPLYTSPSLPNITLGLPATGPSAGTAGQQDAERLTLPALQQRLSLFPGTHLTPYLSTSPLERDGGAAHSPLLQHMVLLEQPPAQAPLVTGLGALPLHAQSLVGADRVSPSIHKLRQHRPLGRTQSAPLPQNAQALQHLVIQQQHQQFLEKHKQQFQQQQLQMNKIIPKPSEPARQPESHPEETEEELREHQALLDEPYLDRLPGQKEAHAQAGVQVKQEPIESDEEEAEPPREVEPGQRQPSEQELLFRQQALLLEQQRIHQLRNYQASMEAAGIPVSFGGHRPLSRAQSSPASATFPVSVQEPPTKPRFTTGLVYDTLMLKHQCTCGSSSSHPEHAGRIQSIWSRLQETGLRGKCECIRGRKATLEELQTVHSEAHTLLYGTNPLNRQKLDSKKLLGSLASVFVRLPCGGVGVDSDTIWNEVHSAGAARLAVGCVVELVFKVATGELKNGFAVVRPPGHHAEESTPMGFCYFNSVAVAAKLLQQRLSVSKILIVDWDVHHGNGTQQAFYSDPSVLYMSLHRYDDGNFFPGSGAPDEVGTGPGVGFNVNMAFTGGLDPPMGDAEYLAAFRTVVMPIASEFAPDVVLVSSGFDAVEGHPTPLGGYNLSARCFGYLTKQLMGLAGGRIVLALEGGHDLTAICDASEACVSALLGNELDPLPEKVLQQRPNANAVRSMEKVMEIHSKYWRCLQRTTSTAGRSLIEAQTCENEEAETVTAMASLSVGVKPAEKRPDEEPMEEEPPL
Chain of Histone deacetylase 1 (Q13547 whole entry): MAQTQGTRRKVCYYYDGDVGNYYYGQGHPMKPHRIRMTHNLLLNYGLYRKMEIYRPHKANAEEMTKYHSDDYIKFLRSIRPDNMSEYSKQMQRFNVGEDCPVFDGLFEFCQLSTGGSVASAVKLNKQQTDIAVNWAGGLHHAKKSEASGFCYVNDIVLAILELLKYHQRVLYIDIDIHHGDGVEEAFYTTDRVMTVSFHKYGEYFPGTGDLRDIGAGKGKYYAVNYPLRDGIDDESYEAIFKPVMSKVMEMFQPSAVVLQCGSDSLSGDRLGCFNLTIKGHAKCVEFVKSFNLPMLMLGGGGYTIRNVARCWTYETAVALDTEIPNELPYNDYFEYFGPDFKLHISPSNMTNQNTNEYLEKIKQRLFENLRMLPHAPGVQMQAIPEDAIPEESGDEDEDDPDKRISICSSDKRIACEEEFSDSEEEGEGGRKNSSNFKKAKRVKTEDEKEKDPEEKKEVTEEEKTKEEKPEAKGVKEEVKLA
Chain of Histone deacetylase 3 (O15379 whole entry): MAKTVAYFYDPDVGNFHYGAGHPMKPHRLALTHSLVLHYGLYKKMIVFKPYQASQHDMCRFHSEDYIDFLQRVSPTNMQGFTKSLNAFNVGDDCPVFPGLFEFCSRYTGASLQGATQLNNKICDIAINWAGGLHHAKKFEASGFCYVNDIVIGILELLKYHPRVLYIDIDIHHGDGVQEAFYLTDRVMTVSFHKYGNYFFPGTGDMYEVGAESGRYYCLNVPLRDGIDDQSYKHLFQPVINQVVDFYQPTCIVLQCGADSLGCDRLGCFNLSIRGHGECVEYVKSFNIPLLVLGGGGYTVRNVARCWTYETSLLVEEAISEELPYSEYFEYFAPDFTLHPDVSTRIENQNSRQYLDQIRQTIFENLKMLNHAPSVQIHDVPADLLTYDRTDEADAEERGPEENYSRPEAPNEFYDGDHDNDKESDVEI
Chain of 72 kDa type IV collagenase (P08253 whole entry): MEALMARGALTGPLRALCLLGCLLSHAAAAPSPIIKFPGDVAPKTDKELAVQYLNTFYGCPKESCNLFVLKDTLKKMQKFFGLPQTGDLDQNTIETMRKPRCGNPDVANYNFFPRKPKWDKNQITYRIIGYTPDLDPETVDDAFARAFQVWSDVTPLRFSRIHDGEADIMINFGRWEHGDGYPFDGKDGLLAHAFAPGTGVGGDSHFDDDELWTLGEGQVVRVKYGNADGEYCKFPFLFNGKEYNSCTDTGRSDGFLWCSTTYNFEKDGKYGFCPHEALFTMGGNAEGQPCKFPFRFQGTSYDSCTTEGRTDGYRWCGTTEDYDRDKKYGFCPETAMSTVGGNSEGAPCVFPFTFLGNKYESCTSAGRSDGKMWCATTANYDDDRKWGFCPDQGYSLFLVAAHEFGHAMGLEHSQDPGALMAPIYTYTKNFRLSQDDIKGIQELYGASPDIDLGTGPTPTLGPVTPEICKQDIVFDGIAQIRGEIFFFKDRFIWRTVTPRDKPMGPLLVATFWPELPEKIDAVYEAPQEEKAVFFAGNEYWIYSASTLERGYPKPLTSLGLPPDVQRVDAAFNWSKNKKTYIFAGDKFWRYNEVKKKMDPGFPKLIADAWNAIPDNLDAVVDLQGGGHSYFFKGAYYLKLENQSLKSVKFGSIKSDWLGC
Chain of Macrophage metalloelastase (P39900 whole entry): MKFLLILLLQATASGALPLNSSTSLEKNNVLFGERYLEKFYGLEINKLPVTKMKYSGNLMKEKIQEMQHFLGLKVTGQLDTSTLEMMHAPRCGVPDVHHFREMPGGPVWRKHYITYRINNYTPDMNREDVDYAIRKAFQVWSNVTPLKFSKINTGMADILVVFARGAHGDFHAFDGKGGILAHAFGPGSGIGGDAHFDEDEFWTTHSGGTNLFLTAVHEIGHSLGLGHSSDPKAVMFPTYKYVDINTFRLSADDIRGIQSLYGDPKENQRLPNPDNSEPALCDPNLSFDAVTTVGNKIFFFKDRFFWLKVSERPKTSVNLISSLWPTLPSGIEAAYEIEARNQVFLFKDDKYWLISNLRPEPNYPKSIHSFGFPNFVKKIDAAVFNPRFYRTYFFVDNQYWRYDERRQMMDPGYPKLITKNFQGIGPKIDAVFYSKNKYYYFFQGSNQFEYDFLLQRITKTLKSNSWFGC
Chain of Matrix metalloproteinase-9 (P14780 whole entry): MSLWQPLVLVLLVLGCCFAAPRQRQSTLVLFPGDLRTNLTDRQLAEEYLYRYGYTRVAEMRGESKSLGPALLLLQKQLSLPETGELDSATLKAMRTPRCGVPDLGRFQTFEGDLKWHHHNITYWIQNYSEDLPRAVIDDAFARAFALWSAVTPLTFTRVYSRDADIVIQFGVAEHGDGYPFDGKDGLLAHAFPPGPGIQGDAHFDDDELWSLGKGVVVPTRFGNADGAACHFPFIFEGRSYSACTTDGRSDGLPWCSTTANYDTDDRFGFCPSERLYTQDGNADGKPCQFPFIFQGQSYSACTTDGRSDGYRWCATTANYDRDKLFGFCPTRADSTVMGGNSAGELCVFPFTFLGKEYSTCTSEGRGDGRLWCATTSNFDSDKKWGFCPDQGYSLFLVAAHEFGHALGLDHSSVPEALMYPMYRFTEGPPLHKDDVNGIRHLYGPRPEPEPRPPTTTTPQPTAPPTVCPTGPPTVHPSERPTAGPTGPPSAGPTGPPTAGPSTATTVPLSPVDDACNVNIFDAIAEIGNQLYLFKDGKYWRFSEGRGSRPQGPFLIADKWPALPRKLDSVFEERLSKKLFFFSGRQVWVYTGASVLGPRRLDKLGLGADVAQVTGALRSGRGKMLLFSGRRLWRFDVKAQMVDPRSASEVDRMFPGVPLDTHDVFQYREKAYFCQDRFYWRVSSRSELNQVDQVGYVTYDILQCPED
Chain of Neutrophil collagenase (P22894 whole entry): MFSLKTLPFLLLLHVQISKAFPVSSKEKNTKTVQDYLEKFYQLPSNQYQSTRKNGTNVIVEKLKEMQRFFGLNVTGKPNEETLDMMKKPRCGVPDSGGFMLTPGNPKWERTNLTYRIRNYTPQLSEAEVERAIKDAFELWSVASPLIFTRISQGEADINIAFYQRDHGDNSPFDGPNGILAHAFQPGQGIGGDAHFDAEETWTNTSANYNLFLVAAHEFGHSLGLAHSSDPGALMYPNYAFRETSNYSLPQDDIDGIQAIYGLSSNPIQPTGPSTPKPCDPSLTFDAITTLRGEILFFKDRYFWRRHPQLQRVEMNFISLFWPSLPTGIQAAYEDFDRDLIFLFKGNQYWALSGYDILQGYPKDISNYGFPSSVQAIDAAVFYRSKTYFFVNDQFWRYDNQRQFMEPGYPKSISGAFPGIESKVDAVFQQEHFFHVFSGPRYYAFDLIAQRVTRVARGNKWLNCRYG
Description for THP-1: Growth inhibition of human THP-1 cells

The term CC50 denotes the concentration giving 50% cytotoxicity. Consider `O=C(/C=C/C#Cc1cccc(NS(=O)(=O)c2ccccc2)c1)NO`, for which the CC50 in the test on Jurkat [1] was 5.9 µM.
A word on the IC50: it is the concentration that inhibits the measured activity by half. By GI50 is commonly meant the concentration that inhibits growth by half. In the case of `COc1ccc(/C=C/C(=O)NO)c(-c2ccc3c(c2)OCO3)c1`, the IC50 was 7.7 µM with MCF7 and 9.5 µM in the test with MDA-MB-231. The same compound showed a GI50 in the test on HeLa of 2 µM.
As for `COc1ccc(/C=C/C(=O)NO)c(-c2ccc(Br)cc2)c1`, the IC50 is 4.5 µM against Histone deacetylase 1; over 20 µM at Histone deacetylase 2; 4.8 µM at Histone deacetylase 3; over 20 µM in [2]; over 20 µM in [3].
As to `CCC(=O)CCCCC[C@@H]1NC(=O)[C@H]2CCCCN2C(=O)[C@H]([C@@H](C)CC)NC(=O)[C@H](Cc2cn(OC)c3ccccc23)NC1=O` [APICIDIN], the CC50 with Jurkat [1] was 10 µM.
Compound `COc1ccc(-c2cccc(-c3cc(OC)c(OC)c(OC)c3)n2)cc1/C=C/C(=O)NO` registered an IC50 against Histone deacetylase 8 [4] of 0.117 µM.
Regarding `O=C(CCCCCN1C(=O)c2cccc3cccc(c23)C1=O)NO`, the IC50 in the test on Jurkat [5] stood at 6.1 µM.
`O=C(O)CC[C@H](NC(=O)Cc1ccc(Br)cc1)C(=O)NCc1ccc([N+](=O)[O-])cc1`: the IC50 in [6] is 138 µM; against Histone deacetylase it was over 10 µM; against Histone deacetylase 8 [7], 2.89 µM; against Neutrophil collagenase, 206 µM; in [8] it was 6.4 µM; in test [9], 4.83 µM. Moreover, the IC50 is 56.6 µM in test [10]; at most 10 µM at Histone deacetylase 8 [11]; at most 35 µM with U-937; at most 35 µM with Jurkat E6.1 [12]; at most 35 µM with MOLT-4 [13].
Regarding `O=C(NO)c1cccc(-c2cn(CSc3ccccc3)nn2)c1`, in test [2], the IC50 is 2.4 µM. The GI50 in the test with Jurkat [14] was 2.8 µM; in the test on HH it was 21 µM; in the test on MT4 it was 22 µM; in the test with HuT78, 32 µM.
With `O=C(NO)[C@@H](Cc1ccccc1)n1nnc(-c2ccccc2)c1C#CC1CC1`, the IC50 was 4.3 µM on Histone deacetylase 1; over 20 µM at Histone deacetylase 2; over 20 µM at Histone deacetylase 3; over 20 µM at Histone deacetylase 4 [15]; 1.2 µM in test [2]; 0.0008 µM on Histone deacetylase 8 [16]. Also, the IC50 in [3] was over 20 µM.
Regarding `O=C(NO)c1cccc(-n2cc(CSc3ccccc3)nn2)c1`, the IC50 against Histone deacetylase 1 is over 100 µM; on Histone deacetylase 2, over 100 µM; at Histone deacetylase 4 [15], over 100 µM; in [2], 2.2 µM. Moreover, in the test with Jurkat [17], it took 24 µM to inhibit growth by half (GI50).
Take `O=C(/C=C/c1cccc(S(=O)(=O)Nc2ccccc2)c1)NO` [BELINOSTAT]: the IC50 against Histone deacetylase 4 [18] came to 0.015 µM; in [19], 0.059 µM. The results for the GI50 with Jurkat [17], in the test on MOLT-4 [20] and with THP-1 were 0.11 µM, 0.12 µM and 0.075 µM, respectively.
Turning to `O=C(O)CC[C@H](NC(=O)Cc1ccc(Br)cc1)C(=O)NCc1ccc(F)cc1`, the IC50 on Histone deacetylase is over 10 µM; against Histone deacetylase 8 [11], at most 10 µM; with Jurkat E6.1 [21], 1.62 µM; in the test with U-937 it was over 35 µM; in the test on Jurkat E6.1 [12], under 35 µM; in the test with MOLT-4 [13], over 35 µM.
